A word on the fraction remaining: it is what is left of the initial amount, in per cent. Higher therefore signals less turnover. A word on the pKa: it is the pH at which an ionisable group is half protonated.

The structures appear in SMILES notation.

One series can be described thus: physchem. Format: physicochemical. Particulars: for Remaining ratio: 0 min, 70 uM; for remaining at 1 h, 70 µM / remaining at 2 h, 70 µM / remaining at 4 h, 70 µM / remaining at 18 h, 70 µM / remaining at 24 h, 70 µM: aqueous solution. The protocol: 2-O-α-D-Glucosyl-L-ascorbic acid was compared respectively to the 6-O-α-D-glucosyl-L-ascorbic acid disclosed in Japanese Patent Publication No. 38,158/73, and L-ascorbic acid for their stability in aqueous solution. More particularly, each sample was adjusted to a concentration of 70 micromoles and to pH 7.0 or 2.0, placed in a cuvette, and measured for its absorbance at either 260 nm and pH 7.0 or at 245 nm and pH 2.0 while keeping the solution at 45° C. The remaining ratio (%) was calculated with the absorbance.

Another series is described as follows: Dissociation constant. Format: physicochemical. The text has this:
(10) Dissociation constant The pKa is 3.0.

A short description of series [1]: Hydrolysis with 1N hydrochloric acid. The format is physicochemical. Particulars: 100° C., 5 minutes, products at molar ratio 1:1. The protocol:
(§1) (14) Structual element: Hydrolyzable by α-glucosidase or by treatment with 1N hydrochloric acid at 100° C. for 5 minutes to form L-ascorbic acid and D-glucose at a molar ratio of 1:1.

The test system of another series is α-glucosidase. Put plainly: Hydrolysis by α-glucosidase. Format: biochemical. As to conditions: products at molar ratio 1:1. The protocol:
as §1

In another series the test system is dd mice. In words: Acute toxicity, oral. The format is in vivo. The text has this:
A crystalline 2-O-α-D-glucopyranosyl-L-ascorbic acid specimen, prepared by the method in Experiment 1, was orally administered to 7 week-old dd mice for acute toxicity test. As the result, no mouse died when administered with up to […] of the specimen, and higher dose was difficult.

A short description of a further series: Solubility in water. Format: physicochemical. Particulars: 25° C.
The nature of a further series: Solubility in solvents. Format: physicochemical.
The nature of series [2]: Coloring reaction: direct reducing activity. Format: biochemical. Particulars: 2,6-dichlorophenolindophenol.
Series [3] is described as follows: Physical properties: hygroscopicity, deliquescence, loss on drying. Format: physicochemical. Particulars: for Hygroscopicity and deliquescence: ambient conditions. As for the experimental part:
(12) Physical properties and color: Colorless and transparent crystal. […] Loss on drying at 130° C. for 2 hours is less than 0.5 w/w %. FIG. 5 is the microscopic view of a crystal growing in a supersaturated solution.

For `O=C1O[C@H]([C@@H](O)CO)C(O)=C1O` [AsA, L-ascorbic acid], in the series “physchem” (pH 2), the Remaining ratio worked out at 100%; the share remaining at 1 h, 70 µM came to 98%; the fraction remaining at 2 h, 70 µM turned out to be 95%; the amount remaining at 4 h, 70 µM is 88%. In “physchem” (pH 2), this compound yielded a share remaining at 18 h, 70 µM of 12% and a share remaining at 24 h, 70 µM of 4%. In the series “physchem” (pH 7), the Remaining ratio stood at 100%; the amount remaining at 1 h, 70 µM amounted to 80%; the share remaining at 2 h, 70 µM came out at 61%; the fraction remaining at 4 h, 70 µM stood at 32%. In addition, in “physchem” (pH 7), the fraction remaining at 18 h, 70 µM was 1% and the share remaining at 24 h, 70 µM turned out to be 1%.
In turn, `O=C1O[C@H]([C@@H](O)CO)C(O)=C1O[C@H]1O[C@H](CO)[C@@H](O)[C@H](O)[C@H]1O` [2-O-α-D-glucopyranosyl-L-ascorbic acid] gave a pKa in “Dissociation constant” of 3. Besides, in “physchem” (pH 2), the fraction remaining at 1 h, 70 µM stood at 100%; the amount remaining at 2 h, 70 µM was determined as 100%; the amount remaining at 4 h, 70 µM amounted to 100%; the share remaining at 18 h, 70 µM was 100%. In “physchem” (pH 2), this compound yielded a share remaining at 24 h, 70 µM of 100%. In the series “physchem” (pH 7), this compound showed a fraction remaining at 1 h, 70 µM of 100%; an amount remaining at 2 h, 70 µM of 100%; an amount remaining at 4 h, 70 µM of 100%; a share remaining at 18 h, 70 µM of 100%. Also, the fraction remaining at 24 h, 70 µM in “physchem” (pH 7) was found to be 100%.
Regarding `O=C1O[C@H]([C@@H](O)CO[C@H]2O[C@H](CO)[C@@H](O)[C@H](O)[C@H]2O)C(O)=C1O` [6GAsA, 6-O-α-D-glucosyl-L-ascorbic acid], in “physchem” (pH 2), the Remaining ratio is listed as 100%; the amount remaining at 1 h, 70 µM amounted to 99%; the fraction remaining at 2 h, 70 µM was determined as 98%; the amount remaining at 4 h, 70 µM amounted to 90%. Further, in “physchem” (pH 2), the share remaining at 18 h, 70 µM came to 25% and the amount remaining at 24 h, 70 µM stood at 12%. Further, in the series “physchem” (pH 7), the Remaining ratio is recorded as 100%; the fraction remaining at 1 h, 70 µM came out at 88%; the fraction remaining at 2 h, 70 µM was determined as 72%; the share remaining at 4 h, 70 µM is 43%. In the series “physchem” (pH 7), this compound returned a share remaining at 18 h, 70 µM of 7% and a fraction remaining at 24 h, 70 µM of 4%.
For `O=C1O[C@H]([C@@H](O)CO)C(O)=C1O[C@H]1O[C@H](CO)[C@@H](O)[C@H](O)[C@H]1O` [crystalline 2-O-α-D-glucopyranosyl-L-ascorbic acid], the “Hydrolysis to L-ascorbic acid and D-glucose” value (in series [1]; with α-glucosidase) was “Hydrolyzable” throughout. For the same compound, the “Dose up to which no mouse died” value in the series with dd mice (7 week-old dd mice, higher dose was difficult) is “up to 5 g”. Further, in the series with dd mice (7 week-old dd mice, up to 5 g of the specimen), the Mortality result is listed as “no mouse died”. The Toxicity entry in the series on dd mice (dd mice, overall conclusion) was “extremely low in toxicity”. The Solubility result in “Solubility in water” is “One hundred and twenty-five”. Also, the Solubility in solvents result in the series “Solubility in solvents” (0.1N acetic acid) was “Readily soluble”; in “Solubility in solvents” (0.1N sodium hydroxide), “Readily soluble”; in the series “Solubility in solvents” (benzene), “insoluble”; in the series “Solubility in solvents” (chloroform) it was “insoluble”; in the series “Solubility in solvents” (ethanol), “soluble”; in “Solubility in solvents” (ether), “insoluble”. Moreover, the results for the Solubility in solvents result in “Solubility in solvents” (ethyl acetate), in “Solubility in solvents” (methanol) and in the series “Solubility in solvents” (water) were “insoluble”, “soluble” and “Readily soluble”, respectively. In addition, the Direct reducing activity entry in [2] is listed as “no direct reducing activity”. Moreover, the Loss on drying result in [3] (130° C., 2 hours) was “less than 0.5 w/w %”. In addition, the Hygroscopicity and deliquescence result in series [3] is “Free of hygroscopicity and deliquescence”. In addition, the Remaining ratio in the series “physchem” (pH 2) and in the series “physchem” (pH 7) was 100% in each case.
With `O=C1O[C@H]([C@@H](O)CO)C(O)=C1O[C@H]1O[C@H](CO)[C@@H](O)[C@H](O)[C@H]1O` [amorphous 2-O-α-D-glucopyranosyl-L-ascorbic acid] [reference compound], the Hygroscopicity and deliquescence entry in series [3] was “strongly hygroscopic”.

The values above are taken from US5084563A, “Crystalline 2-O-α-D-glucopyranosyl-L-ascorbic acid, and its preparation and uses” (priority 1989, dated 1992).
